Experiment: Metabolic stability measured in human liver microsomes
Format: in vitro ADME
Description: Microsome reactions were performed under either Phase I or “Phase I and II” conditions, where indicated. Compound stocks (10 mM ACN) were initially initially diluted to a concentration of 60 μM (in 60% ACN/H2O) resulting in a “working stock” stock” solution of 100×. Human liver microsomes were utilized at a final concentration of 0.6 mg/ml. Duplicate wells were used for each time point (0, 6, 10, 30, and 60 minutes). Reactions were carried out at 37° C. in a shaking water bath, and the final concentration of solvent was kept constant at 0.6%. The final volume for each reaction was 600 μl, comprised of […] of 100 mM KPO4 buffer, (pH 7.4); 12.6 μl of HLM (from a 20 mg/ml stock); 6 μl of 100×“working stock” drug compound, and 126 μl of NRS “master mix” solution. At each time point, 100 μl of reaction was removed and added to a sample well containing 100 μl of ice-cold, 100% ACN (plus internal standards), to stop the reaction. The NRS “master mix” is a solution of glucose-6-phosphate dehydrogenase, NADP^+, MgCl2, and glucose-6-phosphate, prepared per manufacturer's instructions (BD Biosciences, Waltham, Mass.). Each 6.0 ml stock of NRS “master mix” solution contains 3.8 […], 1.0 ml solution “A” (Cat. #461220), and 0.2 ml solution “B” (Cat. #461200). Human liver microsomes (lot #0610279, Xenotech Corp.) represented a pool of 60 donors. donors.
Samples were centrifuged at 3,000 rpm for 10 minutes at 4° C. to remove debris and precipitate protein. Approximately 160 μl of supernatant was subsequently transferred to a new sample block for analysis. The concentration of parent drug remaining in each well (expressed as percent remaining versus Time ‘0’, at the beginning of the reaction) was measured by LC/MS, as detailed below.
All samples were analyzed on the MDS/Sciex API4000 Q Trap system with electrospray ionization (ESI) in the positive or negative SIM mode, depending on the compounds. The mobile phases were isocratic at 30% A (0.1% formic acid in water) and 70% B (0.1% formic acid in acetonitrile) with a flow rate of 0.4 mL/min. A Phenomenex Luna Phenyl-Hexyl column (60×2.0 mm ID, 6μ) was used. The injection volume was 10 μL. The total run time per sample was 1.6 to 3.0 minutes. […] The percentage of parent drug compound remaining after each time point was determined relative to the initial measured concentration at the beginning of the reaction (T0 min).
For half-life determination, data was fitted using GraphPad Prism, v 4.03 with the non-linear regression equation “one phase exponential decay” defined as: Y=Span*exp(−K*X)+Plateau (decays to Plateau with a first-order rate constant, K). […] Intrinsic Clearance (μl/min/mg protein) is defined as: CLint=0.693*(1/T1/2)*(ml incubation/mg protein)*1000; This equation can also be expressed as (K*1000)/microsome concentration.

C[C@](O)(COc1ccc(Cl)c(F)c1)C(=O)Nc1ccc(C#N)c(C(F)(F)F)c1 [S-II, (S)-3-(4-chloro-3-fluorophenoxy)-N-(4-cyano-3-(trifluoromethyl)phenyl)-2-hydroxy-2-methylpropanamide]
CLint (ul/min/mg) Phase I + II (Phase I + II): <1 µL/min/mg
Half Life (minutes) Phase I + II (Phase I + II, 0.6 μM): Stable
Half Life (minutes) Phase I only (Phase I only, 0.6 μM): Stable
microsomal CLint at 0.6 μM (human, human liver microsomes, pH 7.4, Phase I only, read-out: CLint (ul/min/mg) Phase I only): < 1 µL/min/mg
